Experiments:
Format in all cases: functional
HT-29 = assay: Cytotoxicity against human HT-29 cells after 48 hrs by SRB assay; settings: HT-29, 48 h
MDA-MB-231 = assay: Cytotoxicity against human MDA-MB-231 cells after 48 hrs by SRB assay; settings: MDA-MB-231, 48 h; for CC50: read-out: LC50 (the source's name)
A549 = assay: Cytotoxicity against human A549 cells after 48 hrs by SRB assay; settings: A549, 48 h

| Compound | GI50 (HT-29) [µM] | LC50 (HT-29) [µM] | TGI (HT-29) [µM] | GI50 (MDA-MB-231) [µM] | TGI (MDA-MB-231) [µM] | CC50 (MDA-MB-231) [µM] | GI50 (A549) [µM] | LC50 (concentration causing 50% net cell kill) (A549) [µM] | TGI (A549) [µM] |
| --- | --- | --- | --- | --- | --- | --- | --- | --- | --- |
| COc1c(C)c(OC)c(OC)c2c1C[C@H]1[C@@H](OC)N(C(=O)OC(C)C)CC(=O)N1[C@H]2COCc1ccccc1 | 0.195 | 0.527 | 0.273 | 12.3 | > 18.4 | > 18.4 | 11.2 | > 18.4 | > 18.4 |
| COc1c(C)c(OC)c(OC)c2c1C[C@H]1CN(C(=O)OC(C)(C)C)CC(=O)N1[C@H]2COCc1ccccc1 | 8.66 | > 18.4 | > 18.4 | 14.1 | > 19 | > 19 | 8.82 | > 19 | > 19 |
| COc1c(C)c(OC)c(OC)c2c1C[C@H]1CN(C(=O)OC(C)C)[C@@H](Cc3ccccc3)C(=O)N1[C@H]2COCc1ccccc1 | 16.3 | > 16.3 | > 16.3 | > 16.6 | > 16.6 | > 16.6 | > 16.6 | > 16.6 | > 16.6 |
| COc1c(C)c(OC)c(OC)c2c1C[C@H]1CN(C(=O)OC(C)(C)C)[C@@H](Cc3ccccc3)C(=O)N1[C@H]2COCc1ccccc1 | 9.13 | > 16.6 | > 16.6 | 7.13 | 10.5 | > 16.2 | 7.3 | > 16.2 | > 16.2 |
| COc1c(C)c(OC)c(OC)c2c1C[C@H]1CN(C)[C@@H](Cc3ccccc3)C(=O)N1[C@H]2COCc1ccccc1 | 13 | > 16.2 | > 16.2 | > 18.8 | > 18.8 | > 18.8 | 12.2 | > 18.8 | > 18.8 |
| COc1c(C)c(OC)c(OC)c2c1C[C@H]1[C@@H](OC)N(C(=O)OC(C)C)[C@@H](Cc3ccccc3)C(=O)N1[C@H]2COCc1ccccc1 | 11.3 | > 18.8 | > 18.8 | 12.2 | > 15.8 | > 15.8 | 11.1 | > 15.8 | > 15.8 |
| COc1ccc(C[C@H]2C(=O)N3[C@@H](COCc4ccccc4)c4c(c(OC)c(C)c(OC)c4OC)C[C@H]3[C@@H](OC)N2C(=O)OC(C)C)cc1OC | 12.3 | > 15.8 | > 15.8 | 9.53 | > 14.4 | > 14.4 | 6.21 | > 14.4 | > 14.4 |
| COc1ccc(C[C@H]2C(=O)N3[C@@H](COCc4ccccc4)c4c(c(OC)c(C)c(OC)c4OC)C[C@H]3[C@@H](OC)N2C(=O)OC(C)(C)C)cc1OC | 9.38 | > 14.4 | > 14.4 | > 14.1 | > 14.1 | > 14.1 | 9.2 | > 14.1 | > 14.1 |
| COc1cc(C[C@@H]2NCC3=Cc4c(OC)c(C)c(OC)c(OC)c4[C@H](COC(=O)c4cccc5ccccc45)N3C2=O)c(OC)c(C)c1OC | 7.64 | > 14.1 | > 14.1 | 8.79 | > 14.6 | > 14.6 | 2.78 | > 14.6 | > 14.6 |
| COc1cc(C[C@H]2NC=C3Cc4c(OC)c(C)c(OC)c(OC)c4[C@H](COC(=O)/C=C/c4ccccc4)N3C2=O)c(OC)c(C)c1OC | 11.1 | > 14.6 | > 14.6 | 10.6 | > 15.2 | > 15.2 | 6.53 | > 15.2 | > 15.2 |
| COc1c(C)c(OC)c(OC)c2c1C[C@H]1[C@H]3c4ccccc4C[C@@H](C(=O)N1[C@H]2COCc1ccccc1)N3C(=O)OC(C)C | 12.3 | > 15.2 | > 15.2 | 8.32 | > 16.6 | > 16.6 | > 16.6 | > 16.6 | > 16.6 |
| COc1c(C)c(OC)c(OC)c2c1C[C@H]1[C@H]3c4ccccc4C[C@@H](C(=O)N1[C@H]2CO)N3C(=O)OC(C)C | 14 | > 16.6 | > 16.6 | 17.6 | > 19.6 | > 19.6 | > 19.6 | > 19.6 | > 19.6 |
| COc1c(C)c(OC)c(OC)c2c1C[C@H]1N[C@@H]2[C@@H]2Cc3c(OC)c(C)c(OC)c(OC)c3[C@H](COC(=O)c3cccc4ccccc34)N2C1=O | 6.67 | > 18 | > 18 | 10.3 | > 14.6 | > 14.6 | 7.32 | > 14.6 | > 14.6 |
| COc1c(C)c(OC)c(OC)c2c1C[C@H]1CN(C(=O)OC(C)C)CC(=O)N1[C@H]2COCc1ccccc1 | 8.32 | – | 9.84 | – | – | – | – | – | – |
| COc1c(C)c(OC)c(OC)c2c1C[C@H]1[C@@H](O)N(C(=O)OC(C)C)CC(=O)N1[C@H]2COCc1ccccc1 | – | > 1.31 | – | – | – | – | – | – | – |
| CCCN1CC(=O)N2[C@@H](Cc3c(OC)c(C)c(OC)c(OC)c3[C@@H]2COCc2ccccc2)C1 (relative stereo) | 11.2 | > 19 | > 19 | 16.6 | > 21.3 | > 21.3 | 10 | > 21.3 | > 21.3 |
| COc1c(C)c(OC)c(OC)c2c1C[C@H]1CN(Cc3ccccc3)CC(=O)N1[C@H]2COCc1ccccc1 (relative stereo) | 12 | > 21.3 | > 21.3 | 11.2 | > 19.4 | > 19.4 | 7.16 | > 19.4 | 16.1 |
| COc1c(C)c(OC)c(OC)c2c1C[C@H]1CN(Cc3ccc4ccccc4c3[N+](=O)[O-])CC(=O)N1[C@H]2COCc1ccccc1 (relative stereo) | 4.06 | 17.8 | 9.48 | 8.01 | > 16.3 | > 16.3 | > 16.3 | > 16.3 | > 16.3 |
| COc1c(C)c(OC)c(OC)c2c1C[C@@H]1N[C@H]2[C@@H]2Cc3c(OC)c(C)c(OC)c(OC)c3[C@H](CO)N2C1=O (relative stereo) | 12.3 | > 15.1 | > 15.1 | 16.1 | > 18.9 | > 18.9 | > 18.9 | > 18.9 | > 18.9 |
| COc1c(C)c(OC)c(OC)c2c1C[C@H]1[C@@H]3N[C@@H](Cc4ccccc43)C(=O)N1[C@H]2COC(=O)c1cccc2ccccc12 (relative stereo) | > 18.9 | > 18.9 | > 18.9 | 8.64 | > 17.3 | > 17.3 | 13.3 | > 17.3 | > 17.3 |
| COc1c(C)c(OC)c(OC)c2c1C[C@H]1[C@@H]3N[C@@H](Cc4ccccc43)C(=O)N1[C@H]2COC(=O)/C=C/c1ccccc1 (relative stereo) | 6.22 | > 17.3 | > 17.3 | 15 | > 18 | > 18 | 1.05 | > 18 | > 18 |
| COc1c(C)c(OC)c(OC)c2c1C[C@H]1[C@@H]3c4c(c(OC)c(C)c(OC)c4OC)C[C@H](C(=O)N1C2COC(=O)c1cccc2ccccc12)N3C (relative stereo) | 6.88 | > 14.6 | > 14.6 | 7.46 | > 14.4 | > 14.4 | 6.17 | > 14.4 | > 14.4 |
| COc1c(C)c(OC)c(OC)c2c1C[C@H]1[C@H]3c4ccccc4C[C@@H]([C@H](C#N)N1[C@H]2CO)N3C (relative stereo) | 5.17 | > 14.4 | > 14.4 | 7.65 | 12.9 | 18.7 | 5.78 | 18.7 | 12 |
| COc1c(C)c(OC)c(OC)c2c1C[C@H]1[C@H](C#N)N3[C@@H](CO)c4c(c(OC)c(C)c(OC)c4OC)C[C@H]3[C@@H]2N1C (relative stereo) | 7.12 | 15.1 | 10.5 | 4.7 | 9.03 | 14.1 | 3.43 | 13.2 | 8.13 |
| COc1c(C)c(OC)c(OC)c2c1C[C@H]1[C@H]3c4ccccc4C[C@@H]([C@H](C#N)N1[C@H]2COC(=O)/C=C/c1cccc(C(F)(F)F)c1)N3C (relative stereo) | 3.25 | 6.5 | 4.52 | 2.47 | 2.62 | 2.78 | 2.32 | 3.86 | 2.93 |
| COc1cc2c(cc1O)CCN[C@]21CS[C@@H]2c3c(OC(C)=O)c(C)c4c(c3[C@H](COC1=O)N1[C@@H]2[C@H]2c3c(cc(C)c(OC)c3O)C[C@@H]([C@@H]1O)N2C)OCO4 [TRABECTEDIN] | 2.47 | – | 2.93 | 0.000396 | 0.00101 | 0.0017 | 0.00281 | – | 0.00315 |
